What was measured:
[1] = system: Escherichia coli; assay: Photodynamic antibacterial activity against ROS-induced stressed Escherichia coli ATCC 25922 assessed as log reduction in viable cells at 10 uM preincubated for 30 mins followed by 3.6 J/cm2 irradiation for 1 hr mins by fluorescence microscopy; assay type: functional
[2] = system: Mycolicibacterium smegmatis; assay: Photodynamic antibacterial activity against Mycobacterium smegmatis MC2 155 assessed as log reduction in viable cells at 0.5 uM in presence of 118 J/cm2 irradiation; assay type: functional, str. MC2 155
[3] = system: Vesicular stomatitis virus; assay: Photodynamic antiviral activity against vesicular stomatitis virus NJ infected in African green monkey Vero cells assessed as log reduction in viable cells at 0.5 uM in presence of 118 J/cm2 irradiation; assay type: functional, Vesicular stomatitis New Jersey virus
[4] = system: Nakaseomyces glabratus; assay: Photodynamic antifungal activity against Candida glabrata ATCC 15545 assessed as log reduction in viable cells at 1 uM in presence of 118 J/cm2 irradiation; assay type: functional
[5] = system: Human adenovirus 5; assay: Photodynamic antiviral activity against Human adenovirus 5 infected in African green monkey Vero cells assessed as log reduction in viable cells at 5 uM in presence of 118 J/cm2 irradiation; assay type: functional
[6] = system: Pseudomonas aeruginosa; assay: Photodynamic antibacterial activity against Pseudomonas aeruginosa PAO1 assessed as log reduction in viable cells at 2.5 uM preincubated for 30 mins followed by 171 J/cm'2 irradiation for 1 hr by confocal laser scanning microscopy; assay type: functional
[7] = system: Candida albicans; assay: Photodynamic antifungal activity against Candida albicans ATCC 90028 assessed as log reduction in viable cells at 1 uM in presence of 118 J/cm2 irradiation; assay type: functional
[8] = system: dengue virus type 1; assay: Photodynamic antiviral activity against Dengue virus 1 infected in African green monkey Vero cells assessed as log reduction in viable cells at 0.1 uM in presence of 118 J/cm2 irradiation; assay type: functional
[9] = system: Cryptococcus neoformans; assay: Photodynamic antifungal activity against Cryptococcus neoformans ATCC 6453 assessed as log reduction in viable cells at 0.5 uM in presence of 118 J/cm2 irradiation; assay type: functional
[10] = system: Escherichia coli; assay: Photodynamic antibacterial activity against ROS-induced stressed Escherichia coli ATCC 25922 assessed as log reduction in viable cells at 10 uM preincubated for 1 hr followed by 9.36 J/cm2 irradiation for 2 hrs mins by fluorescence microscopy; assay type: functional
[11] = system: Escherichia coli; assay: Photodynamic antibacterial activity against Escherichia coli DH5alpha assessed as log reduction in viable cells 10 uM preincubated for 20 mins followed by 180 J/cm2 irradiation for 60 mins by fluorescence microscopy; assay type: functional, DH5[alpha]
[12] = system: Staphylococcus aureus; assay: Photodynamic antibacterial activity against Staphylococcus aureus NRS11 assessed as log reduction in viable cells at 10 uM preincubated for 20 mins followed by 180 J/cm2 irradiation for 60 mins by fluorescence microscopy; assay type: functional
[13] = system: Klebsiella pneumoniae; assay: Photodynamic antibacterial activity against Klebsiella pneumoniae subsp. pneumoniae ATCC 33495 assessed as log reduction in viable cells at 10 uM preincubated for 20 mins followed by 180 J/cm2 irradiation for 60 mins by fluorescence microscopy; assay type: functional
[14] = system: Bacillus thuringiensis; assay: Photodynamic antibacterial activity against Bacillus thuringiensis NRS 1124 ATCC 19268 assessed as log reduction in viable cells at 10 uM preincubated for 20 mins followed by 180 J/cm2 irradiation for 60 mins by fluorescence microscopy; assay type: functional
[15] = system: Staphylococcus aureus; assay: Photodynamic antibacterial activity against Staphylococcus aureus ATCC 25923 assessed as log reduction in viable cells at 1 uM preincubated for 30 mins followed by immediate irradiation at 21 J/cm2 in presence of 50 mM KI by fluorescence microscopy; assay type: functional
[16] = system: Escherichia coli; assay: Photodynamic antibacterial activity against Escherichia coli EC7 assessed as log reduction in viable cells at 5 uM preincubated for 30 mins followed by immediate irradiation at 63 J/cm2 in presence of 50 mM KI by fluorescence microscopy; assay type: functional
[17] = system: Candida albicans; assay: Photodynamic antibacterial activity against Candida albicans PC31 assessed as log reduction in viable cells at 5 uM preincubated for 30 mins followed by immediate irradiation at 126 J/cm2 in presence of 50 mM KI by fluorescence microscopy; assay type: functional

With CC(=O)OCC1c2c(C)c(I)c(C)n2[B-](F)(F)[N+]2=C(C)C(I)=C(C)C12 (configuration not stated) as the compound, how does the “log(activity)” value [1] read?
Its value is 5.5.

Which “log(activity)” value [2] does the source give for CC1=C(I)C(C)=[N+]2C1C(c1cc[n+](C)cc1)c1c(C)c(I)c(C)n1[B-]2(F)F (configuration not stated) here?
Its value is 3.

And the “log(activity)” value [3]?
Its value is 5.

What about the “log(activity)” value [4] of the same compound?
Its value is 3.

And the “log(activity)” value [5]?
The value was 2.

And the “log(activity)” value [6]?
The value was 7.

What about the “log(activity)” value [7] of the same compound?
Its value is 5.

What about the “log(activity)” value [8] of the same compound?
Its value is 6.

And the “log(activity)” value [9]?
The value was 5.

For CC1=C(C)C2(OO)OC(C)(CC3c4c(C)c(Br)c(C)n4[B-](F)(F)[N+]4=C(C)C(Br)=C(C)C34)CCC2=C(C)C1=O (configuration not stated), which “log(activity)” value [10] is on record?
The value was 5.5.

CC1=C(Br)C(C)=[N+]2C1C(CC1(C)CCc3c(C)c(O)c(C)c(C)c3O1)c1c(C)c(Br)c(C)n1[B-]2(F)F (configuration not stated) was tested. Which “log(activity)” value [10] did it give?
Its value is 5.5.

Which results are given for CC1=C(I)C(C)=[N+]2C1C(c1cc(CN(Cc3ccccn3)Cc3ccccn3)cc(CN(Cc3ccccn3)Cc3ccccn3)c1)c1c(C)c(I)c(C)n1[B-]2(F)F (configuration not stated)?
log(activity) [11]: 3.5; log(activity) [12]: 4.5; log(activity) [13]: 2.2; log(activity) [14]: 4.5

How did the “log(activity)” value [15] turn out when CC1=CC(C)=[N+]2C1C(c1ccc([N+](C)(C)C)cc1)c1c(C)cc(C)n1[B-]2(F)F (configuration not stated) was run?
Its value is 5.

And the “log(activity)” value [16]?
Its value is 3.5.

And the “log(activity)” value [17]?
Its value is 5.5.

CC1=CC(C)=[N+]2C1C(c1ccc(OCCC[N+](C)(C)C)cc1)c1c(C)cc(C)n1[B-]2(F)F (configuration not stated) was tested. Which “log(activity)” value [15] did it give?
Its value is 4.5.

What about the “log(activity)” value [16] of the same compound?
Its value is 6.5.

And the “log(activity)” value [17]?
Its value is 3.5.

CC(=O)OCC1c2c(C)c(Br)c(C)n2[B-](F)(F)[N+]2=C(C)C(Br)=C(C)C12 (configuration not stated) was tested. Which “log(activity)” value [1] did it give?
The value was 5.5.

From ChEMBL document CHEMBL4251629, “BODIPYs to the rescue: Potential applications in photodynamic inactivation” (2018)
